Assay results reported in patent US20250345459A1, “COMPOUND OR SALT THEREOF, LIPID COMPOSITION, PHARMACEUTICAL COMPOSITION, AND DELIVERY CARRIER” (FUJIFILM Corporation, priority 2023, published 2025).

Key:
[1] = Particle size of EPO mRNA-encapsulating lipid nanoparticles; assay type: physicochemical
Experimental: (§1) The compounds described in Table 1, the neutral lipid, cholesterol (product name: Cholesterol HP; NIPPON FINE CHEMICAL CO., LTD.), and 1,2-dimyristoyl-rac-glycero-3-(methylpolyoxyethylene 2000) (hereinafter, called DMG-PEG2000) (product name: SUNBRIGHT® GM-020; NOF corporation) were dissolved in ethanol at a molar ratio of ionized lipid:neutral lipid:cholesterol:DMG-PEG2000=50:10:38.5:1.5 mol % such that the total lipid concentration was 12.5 mmol/L, to obtain an oil phase.
(§2) As the neutral lipid, 1,2-distearoyl-sn-glycero-3-phosphocholine (product name: COATSOME® MC-8080; NOF corporation) (hereinafter, DSPC), or L-α-dioleoylphosphatidylethanolamine (hereinafter, DOPE) (product name: COATSOME® MC-8181; NOF corporation) was used.
(§3) EPO mRNA (product name: CleanCap EPO mRNA (5 moU); TriLink) was diluted with 50 mmol/L citrate buffer having a pH 4.0 such that the weight ratio of total lipid concentration to mRNA concentration is about 20:1 to 64:1, thereby obtaining a water phase. Then, the water phase and the oil phase were mixed together using NanoAssemblr (Precision NanoSystems) such that the volume ratio of water phase:oil phase was 3:1. The mixed solution was diluted 2-fold with any of phosphate buffered physiological saline (PBS), water, or a 20 mmol/L Tris buffer solution (pH 7.4) to obtain a dispersion liquid of mRNA lipid nanoparticles. The dispersion liquid was dialyzed with 20 mmol/L Tris buffer solution (pH 7.4) containing 8% sucrose using a dialysis cassette (Slide-A-Lyzer G2, MWCO: 10 kD, Thermo Fisher Scientific) to remove ethanol, thereby obtaining EPO mRNA-encapsulating lipid nanoparticles.
The particle size of the mRNA-encapsulating lipid nanoparticles was measured by 5-fold diluting the dispersion liquid of lipid nanoparticle with phosphate buffered physiological saline (PBS) using a particle size measurement device NanoSaqla (Otsuka Electronics Co., Ltd.).

[2] = tested on: EPO mRNA; assay: mRNA encapsulation rate of mRNA lipid nanoparticles; assay type: physicochemical
Experimental: as §1, §2, §3
EPO mRNA was diluted with MilliQ water to prepare a diluted sample in 2-fold dilution series from 100 µg/mL to […], and a calibration curve solution was prepared. 50 μL of the calibration curve solution or the mRNA lipid nanoparticles was mixed with 450 μL of methanol to prepare a measurement solution.
The absorbance of each measurement solution at 260 nm and 330 nm was measured using a UV plate reader (Multiskan Go, Thermo Fisher Scientific), the absorbance at 330 nm was subtracted from the absorbance at 260 nm, and the result was defined as the absorbance of each measurement solution. The total […] nucleic acid concentration was calculated from the calibration curve using the absorbance of each sample measurement solution.
The concentration of the outer water phase nucleic acid was quantified by a standard addition method using a QuanT-iT RiboGreen RNA Assay Kit (Thermo Fisher Scientific). First, a 20× TE buffer included in the above kit was diluted with water, thereby obtaining a 1×TE buffer. TE represents Tris/EDTA (ethylenediaminetetraacetic acid). EPO mRNA was diluted with a TE buffer such that the final concentration was 0 to 400 ng/mL to prepare a nucleic acid diluted series. 10 μL of mRNA lipid nanoparticles diluted 5-fold with TE buffer and 90 µL of a nucleic acid dilution series were mixed in a 96-well plate, 100 μL of a Ribogreen reagent diluted 200-fold with TE buffer was added to each well, and then fluorescence (excitation wavelength: 485 nm, fluorescence wavelength: 535 nm) was measured using a fluorescence plate reader (Infinite 200 Pro M nano+, TECAN). From the obtained results, the outer water phase nucleic acid concentration of each measurement solution was calculated according to the standard addition method.
By using the quantification results of the total mRNA concentration and the mRNA concentration in the outer water phase that were obtained through the above steps, the mRNA encapsulation rate of the mRNA lipid nanoparticles was calculated according to the following Equation. […]

[3] = tested on: ICR mice; assay: EPO protein expression in mice after intravenous EPO mRNA lipid nanoparticles; assay type: in vivo; settings: mRNA 0.1 mg/kg, plasma 6 hours after administration
Experimental: as §1, §2, §3
The dispersion liquid of mRNA lipid nanoparticles prepared in above <Preparation of EPO mRNA-encapsulating lipid nanoparticles> was intravenously administered to ICR mice at a mRNA dosage of 0.1 mg/kg. 6 hours after the administration, blood was collected from the caudal vena cava, thereby obtaining plasma. The human EPO […] was quantified by using the obtained blood plasma and Erythropoietin (EPO) Human Elisa Kit (Abcam.plc). The quantitative value is described as a relative amount of EPO protein in a case where Comparative Example 1 is 1.

[4] = LNP with neutral lipid DSPC, mixed solution PBS, Lipid/Nucleic acid (wt/wt) 20
[5] = neutral lipid DSPC, Lipid/Nucleic acid (wt/wt) 20, Comparative Example 1 is 1
[6] = LNP with neutral lipid DOPE, mixed solution PBS, Lipid/Nucleic acid (wt/wt) 64
[7] = neutral lipid DOPE, Lipid/Nucleic acid (wt/wt) 64, Comparative Example 1 is 1
[8] = LNP with neutral lipid DSPC, mixed solution 20 mM Tris, Lipid/Nucleic acid (wt/wt) 20
[9] = LNP with neutral lipid DSPC, mixed solution Water, Lipid/Nucleic acid (wt/wt) 20

Particle size (nm) [1, 4]	Nucleic acid encapsulation rate (%) [2, 4]	Particle size (nm) [1, 6]	Nucleic acid encapsulation rate (%) [2, 6]	Particle size (nm) [1, 8]	Particle size (nm) [1, 9]	Nucleic acid encapsulation rate (%) [2, 8]	Nucleic acid encapsulation rate (%) [2, 9]	SMILES	Relative amount of EPO protein (to Comparative Example 1) [3, 5]	Relative amount of EPO protein (to Comparative Example 1) [3, 7]
94 nm	92%	109.5 nm	>99%	96 nm	93 nm	91%	91%	CCCCCCN(CCCCC(=O)OCC(CCCCC)CCCCC)C(=O)OCCN(CCOC(=O)N(CCCCCC)CCCCC(=O)OCC(CCCCC)CCCCC)CCN(CC)CC [Example 4, bis(2-pentylheptyl) 11-(2-(diethylamino)ethyl)-6,16-dihexyl-7,15-dioxo-8,14-dioxa-6,11,16-triazahenicosanedioate]	12.27	13.62
78 nm	94%	94.5 nm	99%					CCCCCCCCN(CCCCC(=O)OCC(CCCCC)CCCCC)C(=O)OCCN(CCOC(=O)N(CCCCCCCC)CCCCC(=O)OCC(CCCCC)CCCCC)CCN(CC)CC [Example 3, Bis(2-pentylheptyl) 11-(2-(diethylamino)ethyl)-6,16-dioctyl-7,15-dioxo-8,14-dioxa-6,11,16-triazahenicosanedioate]	6.15	13.55
84 nm	95%							CCCCCCCN(CCCCCC(=O)OCC(CCCCC)CCCCC)C(=O)OCCN(CCOC(=O)N(CCCCCCC)CCCCCC(=O)OCC(CCCCC)CCCCC)CCN(CC)CC [Example 45, Bis(2-pentylheptyl) 12-(2-(diethylamino)ethyl)-7,17-diheptyl-8,16-dioxo-9,15-dioxa-7,12,17-triazatricosanedioate]	2.19	
104 nm	93%							CCCCCC(CCCCC)COC(=O)CCCCCN(CCCCC)C(=O)OCCN(CCOC(=O)N(CCCCC)CCCCCC(=O)OCC(CCCCC)CCCCC)CCN(CC)CC [Example 46, Bis(2-pentylheptyl) 12-(2-(diethylamino)ethyl)-8,16-dioxo-7,17-dipentyl-9,15-dioxa-7,12,17-triazatricosanedioate]	1.54	

Second part, the compound before the results:

SMILES	Particle size (nm) [1, 4]	Nucleic acid encapsulation rate (%) [2, 4]	Particle size (nm) [1, 6]	Nucleic acid encapsulation rate (%) [2, 6]	Particle size (nm) [1, 8]	Particle size (nm) [1, 9]	Nucleic acid encapsulation rate (%) [2, 8]	Nucleic acid encapsulation rate (%) [2, 9]	Relative amount of EPO protein (to Comparative Example 1) [3, 5]	Relative amount of EPO protein (to Comparative Example 1) [3, 7]
CCCCCCCCCCCC(=O)OCCN(CCOC(=O)CCCCCCCCCCC)C(=O)OCCN(CCOC(=O)N(CCOC(=O)CCCCCCCCCCC)CCOC(=O)CCCCCCCCCCC)CCN(CC)CC [Example 20, 2-(2-(2-(bis(2-dodecanoyloxyethyl)carbamoyloxy)ethyl-(2-(diethylamino)ethyl)amino)ethoxycarbonyl-(2-dodecanoyloxyethyl)amino)ethyl dodecanoate]	151 nm	82%							1.63	
CCCCCCC(CCCCCC)COC(=O)CCCCCN(CCCC)C(=O)OCCN(CCOC(=O)N(CCCC)CCCCCC(=O)OCC(CCCCCC)CCCCCC)CCN(CC)CC [Example 47, Bis(2-hexyloctyl) 7,17-dibutyl-12-(2-(diethylamino)ethyl)-8,16-dioxo-9,15-dioxa-7,12,17-triazatricosanedioate]	114 nm	91%							1.46	
CCCCCCCCN(CCCCC(=O)OCC(CCCCCC)CCCCCC)C(=O)OCCN(CCOC(=O)N(CCCCCCCC)CCCCC(=O)OCC(CCCCCC)CCCCCC)CCN(CC)CC [Example 2, bis(2-hexyloctyl) 11-(2-(diethylamino)ethyl)-6,16-dioctyl-7,15-dioxo-8,14-dioxa-6,11,16-triazahenicosanedioate]	82 nm	94%	95.6 nm	99%					6.70	24.57
CCCCCCCCN(CCCCC(=O)OCC(CCCCCC)CCCCCC)C(=O)OCCN(CCCCN(CC)CC)CCOC(=O)N(CCCCCCCC)CCCCC(=O)OCC(CCCCCC)CCCCCC [Example 38, bis(2-hexyloctyl) 11-(4-(diethylamino)butyl)-6,16-dioctyl-7,15-dioxo-8,14-dioxa-6,11,16-triazahenicosanedioate]	137 nm	93%							9.99	
CCCCCCCN(CCCCCC(=O)OCC(CCCCC)CCCCC)C(=O)OCCN(CCCN(CC)CC)CCOC(=O)N(CCCCCCC)CCCCCC(=O)OCC(CCCCC)CCCCC [Example 48, Bis(2-pentylheptyl) 12-(3-(diethylamino)propyl)-7,17-diheptyl-8,16-dioxo-9,15-dioxa-7,12,17-triazatricosanedioate]	90 nm	96%							2.26	
CCCCCCCCOC(=O)CCCCN(CCCCCCCC)C(=O)OCCN(CCOC(=O)N(CCCCCCCC)CCCCC(=O)OCC(CCCCCC)CCCCCC)CCN(CC)CC [Example 42, 1-(2-Hexyloctyl) 21-octyl 11-(2-(diethylamino)ethyl)-6,16-dioctyl-7,15-dioxo-8,14-dioxa-6,11,16-triazahenicosanedioate]	154 nm	82%							6.39	
CCCCCCC(CCCCCC)COC(=O)CCCCN(CCCC)C(=O)OCCN(CCCN(CC)CC)CCOC(=O)N(CCCC)CCCCC(=O)OCC(CCCCCC)CCCCCC [Example 24, Bis(2-hexyloctyl) 6,16-dibutyl-11-(3-(diethylamino)propyl)-7,15-dioxo-8,14-dioxa-6,11,16-triazahenicosanedioate]	197 nm	92%							1.48	
CCCCCCCCN(CCCCCCCC)C(=O)OCCN(CCOC(=O)N(CCCCCCCC)CCCCCCCC)CCN(CC)CC [Example 1, ((2-(diethylamino)ethyl)azanediyl)bis(ethan-2,1-diyl)bis(dioctylcarbamate)]			88.6 nm	>99%						21.60
CCCCCCN(CCCCCC(=O)OCC(CCCCC)CCCCC)C(=O)OCCN(CCCN(CC)CC)CCOC(=O)N(CCCCCC)CCCCCC(=O)OCC(CCCCC)CCCCC [Example 26, Bis(2-pentylheptyl) 12-(3-(diethylamino)propyl)-7,17-dihexyl-8,16-dioxo-9,15-dioxa-7,12,17-triazatricosanedioate]	178 nm	91%							4.10	
